Experimental data published in publication PMC12635456, “In Vivo Inhibition of Dipeptidyl Peptidase 4 and Neprilysin Activity Enables Measurement of GLP-1 Secretion in Male Rats” (Journal of the Endocrine Society, 2025).
Read-outs that look alike come from different tables or passages of the source.

Tests used:
[1] = cited from earlier work
Text: Glucagon-like peptide-1 (GLP-1), secreted from enteroendocrine cells in the gut, enhances glucose-stimulated insulin secretion and reduces appetite.

GLP-1 secretion = assay: Oral glucose challenge without inhibitor pretreatment (GLP-1 by RIA and ELISAs); conditions: oral glucose 2 g/kg, no inhibitors
Experimental: In these experiments it was possible to collect relatively large blood samples (∼500 µL), allowing measurements with a single site RIA directed at the C-terminus of the molecule. The samples were collected at time point 0, 15, 30, and 60 minutes after glucose challenge and treated as already described.
Net area under the curve (nAUC) was calculated using the trapezoid rule; baseline was set to the first data point and peaks above and below the baseline were considered. P < .05 was considered significant. Data are shown as mean ± SEM.

Compound | Half-life in the circulation ([1]; humans) | Half-life in the circulation ([1]; mice) | Half-life in the circulation ([1]; rats) | Increase in GLP-1 concentration 15 minutes following glucose, C-terminal RIA (GLP-1 secretion) | Increase in GLP-1 concentration 15 minutes following glucose, Mercodia total ELISA (GLP-1 secretion) | Total GLP-1 plasma concentration 15 minutes after glucose, RIA (GLP-1 secretion; in-house C-terminal RIA 89390, mean ± SEM, n = 5-6, P < .02 vs baseline) | Intact GLP-1 plasma concentration 15 minutes after glucose, Alpco ELISA (GLP-1 secretion; mean ± SEM, n = 5-6, P < .008 vs baseline) | Total GLP-1 plasma concentration 15 minutes after glucose, Mercodia ELISA (GLP-1 secretion; mean ± SEM, n = 5-6, P < .02 vs baseline)
CC[C@H](C)[C@H](NC(=O)[C@H](Cc1ccccc1)NC(=O)[C@H](CCC(=O)O)NC(=O)[C@H](CCCCN)NC(=O)[C@H](C)NC(=O)[C@H](C)NC(=O)[C@H](CCC(N)=O)NC(=O)CNC(=O)[C@H](CCC(=O)O)NC(=O)[C@H](CC(C)C)NC(=O)[C@H](Cc1ccc(O)cc1)NC(=O)[C@H](CO)NC(=O)[C@H](CO)NC(=O)[C@@H](NC(=O)[C@H](CC(=O)O)NC(=O)[C@H](CO)NC(=O)[C@@H](NC(=O)[C@H](Cc1ccccc1)NC(=O)[C@@H](NC(=O)CNC(=O)[C@H](CCC(=O)O)NC(=O)[C@H](C)NC(=O)[C@@H](N)Cc1c[nH]cn1)[C@@H](C)O)[C@@H](C)O)C(C)C)C(=O)N[C@@H](C)C(=O)N[C@@H](Cc1c[nH]c2ccccc12)C(=O)N[C@@H](CC(C)C)C(=O)N[C@H](C(=O)N[C@@H](CCCCN)C(=O)NCC(=O)N[C@@H](CCCNC(=N)N)C(N)=O)C(C)C [GLP-1(7-36)NH2] | a few minutes | a few minutes | a few minutes |  |  |  |  | 
OC[C@H]1OC(O)[C@H](O)[C@@H](O)[C@@H]1O (some centres unmarked) [glucose] |  |  |  | ~15 pmol/L | around 5 pmol/L | 43.1 ± 3.7 pmol/L | 0.8 ± 0.07 pmol/L | 10.5 ± 1.8 pmol/L
